Laboratory results: article PMC11605291 (Frontiers in Pharmacology, 2024)

Legend:
[1] = Excretion of radioactivity in urine and feces (mass balance); type: in vivo, human
Protocol: Six subjects were admitted to the clinical research center 1 day prior to dosing, with random urine and fecal samples collected as blank excretion controls. After fasting overnight for at least 10 h, a blank blood sample was collected after a regular breakfast (449 kcal, with ∼35% energy from fat) on Day 1. […] It is noteworthy that the medication administration duration for each subject was strictly kept within 10 min. Scheduled collection of urine, feces, and blood samples, and safety monitoring proceeded until completion.
The excreta sample collection ceased when total radioactivity from excreta surpassed 80% of the administered dose, or less than 1% of the dose for two consecutive intervals. Blood sample collection ceased when the radioactivity of plasma at 2 consecutive time points was lower than 3 times the radioactivity at 0 h before administration. Based on the interim results, sample collection concluded earlier than initially planned.
Venous blood samples were collected within 0.5 h prior to administration and at 0.5, 1, 1.5, 2, 3, 4, 6, 8, 12, 24, 36, 48, 72, and 96 h after administration. About 8 mL of blood was collected at each time point in the anticoagulant collection tube containing K2-EDTA. The centrifuged plasma was used for non-radioactive and radioactive pharmacokinetic and biotransformation (metabolite) analyses. In addition, about 2 mL of venous blood was collected within 0.5 h before administration and at 1, 4, 8, 12, 24, and 48 h after administration for whole blood radioactivity analysis. Additional 10 mL of venous blood for each time point was collected at 1, 4, 8, 12, 24, and 48 h after administration, and the plasma was obtained by centrifugation for biotransformation (metabolites) analysis. Urine and fecal samples were collected until 144 h (4 subjects) or 192 h (2 subjects) after administration.
Radioactivity was measured using an oxidative combustion apparatus and liquid scintillation counter (LSC). After the whole blood sample was vortexed thoroughly, two portions (about 0.5 g each) were weighed into the combustion boat, and after complete combustion by oxidative combustion apparatus, [^14C]carbon dioxide generated from the combustion of the samples was captured by scintillation solution and measured by liquid scintillation counter. After plasma samples were fully vortexed, one portion (approximately 0.5 g) was weighed into a scintillation vial, mixed well with the scintillation solution, and measured using a liquid scintillation counter. When the radioactivity of the plasma sample after administration is below the LLOQ, additional samples can be added, up to a maximum of 1 g. After mixing the urine well, weighed one portion (about 1 g) into a scintillation bottle, then added scintillation solution to mix well, and use a liquid scintillation counter to measure the radioactivity. The feces were transferred to labelled containers with known empty weights and soaked in an appropriate amount of 50% aqueous isopropanol solution for about 2–4 h or for a certain period of time (e.g., overnight) at 1°C–9°C. Before homogenization, the solution was made up to a suitable dilution by the addition of an appropriate amount of 50% aqueous isopropanol, the total weight was weighed and recorded, and the homogenization was carried out using a tissue homogenizer. Two equal portions of the homogenate (approximately 0.3 g) were weighed into a combustion boat and fully combusted by an oxidative combustion apparatus, and the [^14C]carbon dioxide generated from the combustion of the samples was captured with a scintillation solution and measured using a liquid scintillation counter.
The combustion efficiency of the oxidative combustor was verified by performing a combustion recovery test using a^14C-containing standard solution of known radioactivity concentration prior to combustion of the sample. […]

[2] = parameters: method as in Cao W. et al., 2023; settings: 30 mg amdizalisib capsules, fed condition, Chinese healthy volunteers ref Cao W. et al., 2023; cited from earlier work
[3] = Total radioactivity in plasma and whole blood (LSC), pharmacokinetics and blood-to-plasma ratio; type: in vivo, human
Protocol: Six subjects were admitted to the clinical research center 1 day prior to dosing, with random urine and fecal samples collected as blank excretion controls. After fasting overnight for at least 10 h, a blank blood sample was collected after a regular breakfast (449 kcal, with ∼35% energy from fat) on Day 1. […] Scheduled collection of urine, feces, and blood samples, and safety monitoring proceeded until completion.
Pharmacokinetic analysis was performed using Phoenix WinNonlin® software version 8.3. […] Descriptive statistics applied to parameters including maximum plasma concentration after administration (Cmax), the time to reach maximum plasma concentration after administration (Tmax), elimination rate constant (λz), area under the plasma concentration-time curve from the time 0 to the time of last quantifiable concentration (AUC0-t, obtained by the linear trapezoidal method), area under the plasma concentration-time curve from time 0 extrapolated to infinity (AUC0-∞, AUC0-∞ = AUC0-t + Ct/λ z ), half-life (t1/2, t1/2 = ln ([Lannutti et al., 2011])/λz), mean residence time (MRT, MRT = AUMC/AUC), apparent clearance (CL/F, CL/F = Dose/AUC0-∞), apparent volume of distribution based on terminal phase (Vz/F, Vz/F = Dose/(λz×AUC0-∞)).
Radioactivity was measured using an oxidative combustion apparatus and liquid scintillation counter (LSC). After the whole blood sample was vortexed thoroughly, two portions (about 0.5 g each) were weighed into the combustion boat, and after complete combustion by oxidative combustion apparatus, [^14C]carbon dioxide generated from the combustion of the samples was captured by scintillation solution and measured by liquid scintillation counter. After plasma samples were fully vortexed, one portion (approximately 0.5 g) was weighed into a scintillation vial, mixed well with the scintillation solution, and measured using a liquid scintillation counter. […]

[4] = total radioactivity in plasma, mean ± SD

C[C@H](Nc1ncnc(N)c1C#N)c1cc2ncc(Cl)n2nc1-c1ccccc1 [Amdizalisib]
Aefeces, % of dose ([1]; Total (mean ± SD), 6 subjects, feces 0–144/192 h): 62.08 % of dose | Aefeces, % of dose ([1]; Total (mean ± SD), 6 subjects, feces 0–144/192 h, listed as [^14C] Amdizalisib): 62.08 ± 3.00 % of dose | Aeurine, % of dose ([1]; Total (mean ± SD), 6 subjects, urine 0–144/192 h): 37.15 % of dose | Aeurine, % of dose ([1]; Total (mean ± SD), 6 subjects, urine 0–144/192 h, listed as [^14C] Amdizalisib): 37.15 ± 2.84 % of dose | Aetotal, % of dose ([1]; Total (mean ± SD), 6 subjects, urine and feces 0–144/192 h, listed as [^14C] Amdizalisib): 99.23 ± 0.30 % of dose | Aetotal, % of dose ([1]; Total (mean ± SD), 6 subjects, urine and feces 0–144/192 h, listed as [^14C]amdizalisib): 99.23 % of dose | time within which completely excreted ([1]; single oral dose of [14C]amdizalisib suspension): ≤ 168 h | Aefeces, % of dose ([1]; subject 1,001, feces 0–192 h): 58.49 % of dose | Aeurine, % of dose ([1]; subject 1,001, urine 0–192 h): 40.40 % of dose | Aetotal, % of dose ([1]; subject 1,001, urine and feces 0–192 h): 98.89 % of dose | Aefeces, % of dose ([1]; subject 1,002, feces 0–192 h): 63.33 % of dose | Aeurine, % of dose ([1]; subject 1,002, urine 0–192 h): 35.85 % of dose | Aetotal, % of dose ([1]; subject 1,002, urine and feces 0–192 h): 99.18 % of dose | Aefeces, % of dose ([1]; subject 1,003, feces 0–144 h): 64.48 % of dose | Aeurine, % of dose ([1]; subject 1,003, urine 0–144 h): 35.12 % of dose | Aetotal, % of dose ([1]; subject 1,003, urine and feces 0–144 h): 99.60 % of dose | Aefeces, % of dose ([1]; subject 1,004, feces 0–144 h): 58.70 % of dose | Aeurine, % of dose ([1]; subject 1,004, urine 0–144 h): 40.65 % of dose | Aetotal, % of dose ([1]; subject 1,004, urine and feces 0–144 h): 99.35 % of dose | Aefeces, % of dose ([1]; subject 1,005, feces 0–144 h): 61.77 % of dose | Aeurine, % of dose ([1]; subject 1,005, urine 0–144 h): 37.11 % of dose | Aetotal, % of dose ([1]; subject 1,005, urine and feces 0–144 h): 98.88 % of dose | Aefeces, % of dose ([1]; subject 1,006, feces 0–144 h): 65.73 % of dose | Aeurine, % of dose ([1]; subject 1,006, urine 0–144 h): 33.74 % of dose | Aetotal, % of dose ([1]; subject 1,006, urine and feces 0–144 h): 99.47 % of dose | average excretion of total radioactivity within 96 h after administration ([1]; urine plus feces): over 94 % of the administered dose | excretion within 96 h as share of the total excretion from 0 h to 192 h ([1]; urine plus feces): 94.74% | average excretion of total radioactivity within 96 h after administration ([1]; urine plus feces, listed as [^14C]amdizalisib): 94.01 % of the administered dose | AUC0-∞ [2]: 1,574 h٠ng/mL | Cmax [2]: 152 ng/mL | average plasma total radioactivity concentration at 96 h post dose ([3]; still detectable in 4 subjects): 4.74 ng Eq./mL | AUC0-t of total radioactivity [3, 4]: 3,900 h ng Eq./mL | CL/F of total radioactivity [3, 4]: 7.25 L/h | Cmax of total radioactivity [3, 4]: 368 ng Eq./mL
